Reference: US20180155344A1, “TRICYCLIC PIPERIDINE COMPOUNDS” (ACTELION PHARMACEUTICALS LTD, priority 2015, published 2018)

Molecular target: T1, human TPH1 (Homo sapiens, UniProt P17752)
T1 sequence (P17752 1-444): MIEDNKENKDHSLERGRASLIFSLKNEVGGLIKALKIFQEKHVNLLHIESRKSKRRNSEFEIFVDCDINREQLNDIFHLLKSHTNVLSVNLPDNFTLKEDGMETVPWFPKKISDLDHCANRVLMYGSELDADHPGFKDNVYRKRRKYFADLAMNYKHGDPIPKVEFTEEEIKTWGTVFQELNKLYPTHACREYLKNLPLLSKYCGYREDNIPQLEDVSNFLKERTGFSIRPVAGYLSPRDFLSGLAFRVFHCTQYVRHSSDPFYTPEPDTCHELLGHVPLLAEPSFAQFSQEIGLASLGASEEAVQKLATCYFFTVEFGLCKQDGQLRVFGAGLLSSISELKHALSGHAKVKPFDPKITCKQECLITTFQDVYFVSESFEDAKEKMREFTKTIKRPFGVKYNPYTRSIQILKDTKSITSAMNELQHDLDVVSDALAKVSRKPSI
Assay: biochemical
Summary of the method: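 Inhibition is derived from 5-hydroxy-L-tryptophan fluorescence (540 nm emission, 300 nm excitation) after perchloric acid stop, relative to DMSO vehicle. Recombinant full-length human enzyme (40-80 nM) reacts with 40 μM tryptophan plus 100 μM methyltetrahydropterin, pH 7.6 Tris/DTT/catalase, 15° C, 60 min.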

| IC50 | Structure (SMILES) |
| --- | --- |
| 45 nM | COc1ccc(C2c3c(nc4cc(C(F)(F)F)ccn34)CCN2C(=O)COc2ccc3ccccc3c2)cc1O (stereo not drawn) [Example 3.9.1, 1-(1-(3-hydroxy-4-methoxyphenyl)-7-(trifluoromethyl)-3,4-dihydroimidazo[1,2-a:5,4-c′]dipyridin-2(1H)-yl)-2-(naphthalen-2-yloxy)ethan-1-one] |
| 33 nM | Cc1ccc(C2c3c(nc4cc(C(F)(F)F)ccn34)CCN2C(=O)COc2ccc3ccccc3c2)cc1C (stereo not drawn) [Example 3.10.1, 1-(1-(3,4-dimethylphenyl)-7-(trifluoromethyl)-3,4-dihydroimidazo[1,2-a:5,4-c′]dipyridin-2(1H)-yl)-2-(naphthalen-2-yloxy)ethan-1-one] |
| 23 nM | Cc1ccc(C2c3c(nc4cc(C(F)(F)F)ccn34)CCN2C(=O)COc2ccc(CN3CCOCC3)cc2Cl)cc1C (stereo not drawn) [Example 3.10.2, 2-(2-chloro-4-(morpholinomethyl)phenoxy)-1-(1-(3,4-dimethylphenyl)-7-(trifluoromethyl)-3,4-dihydroimidazo[1,2-a:5,4-c′]dipyridin-2(1H)-yl)ethan-1-one] |
| 239 nM | Cc1ccc(C2c3c(nc4cc(C(F)(F)F)ccn34)CCN2C(=O)COc2cccnc2Cl)cc1C (stereo not drawn) [Example 3.10.3, 2-((2-chloropyridin-3-yl)oxy)-1-(1-(3,4-dimethylphenyl)-7-(trifluoromethyl)-3,4-dihydroimidazo[1,2-a:5,4-c′]dipyridin-2(1H)-yl)ethan-1-one] |
| 318 nM | COc1cc(C2c3c(nc4cc(C(F)(F)F)ccn34)CCN2C(=O)COc2ccc3ccccc3c2)ccc1O (stereo not drawn) [Example 3.11.1, 1-(1-(4-hydroxy-3-methoxyphenyl)-7-(trifluoromethyl)-3,4-dihydroimidazo[1,2-a:5,4-c′]dipyridin-2(1H)-yl)-2-(naphthalen-2-yloxy)ethan-1-one] |
| 41 nM | COc1ccc(C2c3c(nc4cc(C(F)(F)F)ccn34)CCN2C(=O)COc2ccc3ccccc3c2)cc1OC(F)F (stereo not drawn) [Example 3.12.1, 1-(1-(3-(difluoromethoxy)-4-methoxyphenyl)-7-(trifluoromethyl)-3,4-dihydroimidazo[1,2-a:5,4-c′]dipyridin-2(1H)-yl)-2-(naphthalen-2-yloxy)ethan-1-one] |
| 75 nM | COc1ccc(C2c3c(nc4cc(C(F)(F)F)ccn34)CCN2C(=O)COc2ccc3ccccc3c2)cc1OC(F)(F)F (stereo not drawn) [Example 3.13.1, 1-(1-(4-methoxy-3-(trifluoromethoxy)phenyl)-7-(trifluoromethyl)-3,4-dihydroimidazo[1,2-a:5,4-c′]dipyridin-2(1H)-yl)-2-(naphthalen-2-yloxy)ethan-1-one] |
| 106 nM | COc1cc(C2c3c(nc4cc(C(F)(F)F)ccn34)CCN2C(=O)COc2ccc3ccccc3c2)ccc1OC(F)F (stereo not drawn) [Example 3.14.1, 1-(1-(4-(difluoromethoxy)-3-methoxyphenyl)-7-(trifluoromethyl)-3,4-dihydroimidazo[1,2-a:5,4-c′]dipyridin-2(1H)-yl)-2-(naphthalen-2-yloxy)ethan-1-one] |
| 70 nM | COc1cc(C2c3c(nc4cc(C(F)(F)F)ccn34)CCN2C(=O)COc2ccc3ccccc3c2)ccc1OCCN(C)C (stereo not drawn) [Example 3.15.1, 1-(1-(4-(2-(dimethylamino)ethoxy)-3-methoxyphenyl)-7-(trifluoromethyl)-3,4-dihydroimidazo[1,2-a:5,4-c′]dipyridin-2(1H)-yl)-2-(naphthalen-2-yloxy)ethan-1-one] |
| 150 nM | O=C(COc1ccc2ccccc2c1)N1CCc2nc3cc(C(F)(F)F)ccn3c2C1c1ccc2c(c1)OCO2 (stereo not drawn) [Example 3.16.1, 1-(1-(benzo[d][1,3]dioxol-5-yl)-7-(trifluoromethyl)-3,4-dihydroimidazo[1,2-a:5,4-c′]dipyridin-2(1H)-yl)-2-(naphthalen-2-yloxy)ethan-1-one] |
| 138 nM | O=C(COc1ccc2ccccc2c1)N1CCc2nc3cc(C(F)(F)F)ccn3c2C1c1ccc2c(c1)OCCO2 (stereo not drawn) [Example 3.17.1, 1-(1-(2,3-dihydrobenzo[b][1,4]dioxin-6-yl)-7-(trifluoromethyl)-3,4-dihydroimidazo[1,2-a:5,4-c′]dipyridin-2(1H)-yl)-2-(naphthalen-2-yloxy)ethan-1-one] |
| 5 nM | COc1cc(F)c(C2c3c(nc4cc(C(F)(F)F)ccn34)CCN2C(=O)COc2ccc3ccccc3c2)cc1OC (stereo not drawn) [Example 3.18.1, 1-(1-(2-fluoro-4,5-dimethoxyphenyl)-7-(trifluoromethyl)-3,4-dihydroimidazo[1,2-a:5,4-c′]dipyridin-2(1H)-yl)-2-(naphthalen-2-yloxy)ethan-1-one] |
| 5 nM | COc1cc(F)c(C2c3c(nc4cc(C(F)(F)F)ccn34)CCN2C(=O)COc2ccc(CN3CCOCC3)cc2Cl)cc1OC (stereo not drawn) [Example 3.18.2, 2-(2-chloro-4-(morpholinomethyl)phenoxy)-1-(1-(2-fluoro-4,5-dimethoxyphenyl)-7-(trifluoromethyl)-3,4-dihydroimidazo[1,2-a:5,4-c′]dipyridin-2(1H)-yl)ethan-1-one] |
| 9 nM | COc1cc(F)c(C2c3c(nc4cc(C(F)(F)F)ccn34)CCN2C(=O)COc2ccc3c(c2)CN(C(=O)OC(C)(C)C)CC3)cc1OC (stereo not drawn) [Example 3.18.3, tert-butyl 7-(2-(1-(2-fluoro-4,5-dimethoxyphenyl)-7-(trifluoromethyl)-3,4-dihydroimidazo[1,2-a:5,4-c′]dipyridin-2(1H)-yl)-2-oxoethoxy)-3,4-dihydroisoquinoline-2(1H)-carboxylate] |
| 72 nM | COc1cc(F)c(C2c3c(nc4cc(C(F)(F)F)ccn34)CCN2C(=O)COc2ccc3c(c2)CNCC3)cc1OC (stereo not drawn) [Example 3.18.4, 1-(1-(2-fluoro-4,5-dimethoxyphenyl)-7-(trifluoromethyl)-3,4-dihydroimidazo[1,2-a:5,4-c′]dipyridin-2(1H)-yl)-2-((1,2,3,4-tetrahydroisoquinolin-7-yl)oxy)ethan-1-one] |
| 13 nM | COc1cc(F)c(C2c3c(nc4cc(C(F)(F)F)ccn34)CCN2C(=O)COc2ccc3c(c2)CN(C)CC3)cc1OC (stereo not drawn) [Example 3.18.5, 1-(1-(2-fluoro-4,5-dimethoxyphenyl)-7-(trifluoromethyl)-3,4-dihydroimidazo[1,2-a:5,4-c′]dipyridin-2(1H)-yl)-2-((2-methyl-1,2,3,4-tetrahydroisoquinolin-7-yl)oxy)ethan-1-one] |
| 6 nM | COc1cc(F)c(C2c3c(nc4cc(C(F)(F)F)ccn34)CCN2C(=O)COc2ccc3c(c2)CN(C(C)=O)CC3)cc1OC (stereo not drawn) [Example 3.18.6, 2-((2-acetyl-1,2,3,4-tetrahydroisoquinolin-7-yl)oxy)-1-(1-(2-fluoro-4,5-dimethoxyphenyl)-7-(trifluoromethyl)-3,4-dihydroimidazo[1,2-a:5,4-c′]dipyridin-2(1H)-yl)ethan-1-one] |
| 4 nM | COc1cc(F)c(C2c3c(nc4cc(C(F)(F)F)ccn34)CCN2C(=O)COc2ccc3c(c2)CN(C(=O)CO)CC3)cc1OC (stereo not drawn) [Example 3.18.7, 1-(1-(2-fluoro-4,5-dimethoxyphenyl)-7-(trifluoromethyl)-3,4-dihydroimidazo[1,2-a:5,4-c′]dipyridin-2(1H)-yl)-2-((2-(2-hydroxyacetyl)-1,2,3,4-tetrahydroisoquinolin-7-yl)oxy)ethan-1-one] |
| 48 nM | COc1cc(F)c(C2c3c(nc4cc(C(F)(F)F)ccn34)CCN2C(=O)COc2ccc(C3(N[S+]([O-])C(C)(C)C)COC3)cc2Cl)cc1OC (stereo not drawn) [Example 3.18.8, N-(3-(3-chloro-4-(2-(1-(2-fluoro-4,5-dimethoxyphenyl)-7-(trifluoromethyl)-3,4-dihydroimidazo[1,2-a:5,4-c′]dipyridin-2(1H)-yl)-2-oxoethoxy)phenyl)oxetan-3-yl)-2-methylpropane-2-sulfinamide] |
| 10 nM | COc1cc(F)c(C2c3c(nc4cc(C(F)(F)F)ccn34)CCN2C(=O)COc2ccc(C3(N)COC3)cc2Cl)cc1OC (stereo not drawn) [Example 3.18.9, 2-(4-(3-aminooxetan-3-yl)-2-chlorophenoxy)-1-(1-(2-fluoro-4,5-dimethoxyphenyl)-7-(trifluoromethyl)-3,4-dihydroimidazo[1,2-a:5,4-c′]dipyridin-2(1H)-yl)ethan-1-one] |
| 25 nM | COc1cc(F)c(C2c3c(nc4cc(C(F)(F)F)ccn34)CCN2C(=O)COc2ccc(C3(N4CCOCC4)COC3)cc2Cl)cc1OC (stereo not drawn) [Example 3.18.10, 2-(2-chloro-4-(3-morpholinooxetan-3-yl)phenoxy)-1-(1-(2-fluoro-4,5-dimethoxyphenyl)-7-(trifluoromethyl)-3,4-dihydroimidazo[1,2-a:5,4-c′]dipyridin-2(1H)-yl)ethan-1-one] |
| 30 nM | COc1cc(C2c3c(nc4cc(C(F)(F)F)ccn34)CCN2C(=O)COc2ccc3ccccc3c2)cnc1OC (stereo not drawn) [Example 3.19.1, 1-(1-(5,6-dimethoxypyridin-3-yl)-7-(trifluoromethyl)-3,4-dihydroimidazo[1,2-a:5,4-c′]dipyridin-2(1H)-yl)-2-(naphthalen-2-yloxy)ethan-1-one] |
| 53 nM | COc1ccc(C2c3c(nc4cc(C(F)(F)F)ccn34)CCN2C(=O)COc2ccc3ccccc3c2)nc1OC (stereo not drawn) [Example 3.20.1, 1-(1-(5,6-dimethoxypyridin-2-yl)-7-(trifluoromethyl)-3,4-dihydroimidazo[1,2-a:5,4-c′]dipyridin-2(1H)-yl)-2-(naphthalen-2-yloxy)ethan-1-one] |
| 69 nM | O=C(COc1ccc2ccccc2c1)N1CCc2nc3cc(C(F)(F)F)ccn3c2C1c1ncccc1F (stereo not drawn) [Example 3.21.1, 1-(1-(3-fluoropyridin-2-yl)-7-(trifluoromethyl)-3,4-dihydroimidazo[1,2-a:5,4-c′]dipyridin-2(1H)-yl)-2-(naphthalen-2-yloxy)ethan-1-one] |
